From PMC10177692, “Novel topoisomerase II/EGFR dual inhibitors: design, synthesis and docking studies of naphtho[2′,3′:4,5]thiazolo[3,2-a]pyrimidine hybrids as potential anticancer agents with apoptosis inducing activity” (Journal of Enzyme Inhibition and Medicinal Chemistry, 2023)
Where two headings read alike, the source gives them in different places.

What was measured:
[1] = test system: A549; test: MTT anti-proliferative assay; assay type: cell-based, human; conditions: for IC50: Homo sapiens, A549, MTT, 24 h, mean ± SE of three experiments, read-out: IC50 (µM) ± S.E. A549; for fold the activity of erlotinib: A549, ratio of IC50 values
Experimental: (§1) The culture media were supplemented with 10% heat inactivated foetal bovine serum (FBS, HyClone, Thermo Scientific) and antibiotics (100 U/ml penicillin and 100 µg/ml streptomycin, HyClone, Thermo Scientific). The cells were incubated in a humidified atmosphere containing 5% CO2 (Heracell VIOS CO2 incubator, Thermo Scientific) in air at 37 °C.
(§2) MTT reagent, at volume equal to 10% of the culture medium volume, was added to the cultured cells and to the blank wells. The culture plates were re-incubated for 2–4 h depending on cell type and density. After the incubation period, culture plates were restored from the incubator and the obtained formazan crystals were dissolved in acidified isopropanol with continuous shaking using plate shaker (MaxQ 2000, Thermo Fisher Scientific Inc., MI, USA) at room temperature. Absorbance was measured spectrophotometrically at wavelength 570 nm using a plate reader (Stat FaxR 4200, Awareness Technology, Inc., FL, USA). […] Three independent experiments were performed for each compound and Mean ± SE were calculated.

[2] = test system: HCT-116; test: MTT anti-proliferative assay; assay type: cell-based, human; conditions: Homo sapiens, HCT-116; MTT, 24 h, mean ± SE of three experiments; read-out: IC50 (µM) ± S.E. HCT-116
Experimental: as §1, §2

[3] = test system: MCF-7; test: MTT anti-proliferative assay; assay type: cell-based, human; conditions: for IC50: Homo sapiens, MCF7; for fold the activity of erlotinib: MCF-7, ratio of IC50 values
Experimental: as §1, §2

[4] = target: T1, topoisomerase IIα (Homo sapiens, UniProt P11388); test: Topoisomerase IIα inhibitory activity (ELISA kit); assay type: cell-based; conditions: MCF-7 cell line; for % inhibition of topoisomerase IIα activity: compounds at their IC50, compared to control
T1 construct: it decreases the concentration of topoisomerase iIα in MCF-7 cell line to 1.043 ± 0.10 ng/ml; endogenous in cells; host or cells: MCF-7
T1 sequence (P11388 whole entry): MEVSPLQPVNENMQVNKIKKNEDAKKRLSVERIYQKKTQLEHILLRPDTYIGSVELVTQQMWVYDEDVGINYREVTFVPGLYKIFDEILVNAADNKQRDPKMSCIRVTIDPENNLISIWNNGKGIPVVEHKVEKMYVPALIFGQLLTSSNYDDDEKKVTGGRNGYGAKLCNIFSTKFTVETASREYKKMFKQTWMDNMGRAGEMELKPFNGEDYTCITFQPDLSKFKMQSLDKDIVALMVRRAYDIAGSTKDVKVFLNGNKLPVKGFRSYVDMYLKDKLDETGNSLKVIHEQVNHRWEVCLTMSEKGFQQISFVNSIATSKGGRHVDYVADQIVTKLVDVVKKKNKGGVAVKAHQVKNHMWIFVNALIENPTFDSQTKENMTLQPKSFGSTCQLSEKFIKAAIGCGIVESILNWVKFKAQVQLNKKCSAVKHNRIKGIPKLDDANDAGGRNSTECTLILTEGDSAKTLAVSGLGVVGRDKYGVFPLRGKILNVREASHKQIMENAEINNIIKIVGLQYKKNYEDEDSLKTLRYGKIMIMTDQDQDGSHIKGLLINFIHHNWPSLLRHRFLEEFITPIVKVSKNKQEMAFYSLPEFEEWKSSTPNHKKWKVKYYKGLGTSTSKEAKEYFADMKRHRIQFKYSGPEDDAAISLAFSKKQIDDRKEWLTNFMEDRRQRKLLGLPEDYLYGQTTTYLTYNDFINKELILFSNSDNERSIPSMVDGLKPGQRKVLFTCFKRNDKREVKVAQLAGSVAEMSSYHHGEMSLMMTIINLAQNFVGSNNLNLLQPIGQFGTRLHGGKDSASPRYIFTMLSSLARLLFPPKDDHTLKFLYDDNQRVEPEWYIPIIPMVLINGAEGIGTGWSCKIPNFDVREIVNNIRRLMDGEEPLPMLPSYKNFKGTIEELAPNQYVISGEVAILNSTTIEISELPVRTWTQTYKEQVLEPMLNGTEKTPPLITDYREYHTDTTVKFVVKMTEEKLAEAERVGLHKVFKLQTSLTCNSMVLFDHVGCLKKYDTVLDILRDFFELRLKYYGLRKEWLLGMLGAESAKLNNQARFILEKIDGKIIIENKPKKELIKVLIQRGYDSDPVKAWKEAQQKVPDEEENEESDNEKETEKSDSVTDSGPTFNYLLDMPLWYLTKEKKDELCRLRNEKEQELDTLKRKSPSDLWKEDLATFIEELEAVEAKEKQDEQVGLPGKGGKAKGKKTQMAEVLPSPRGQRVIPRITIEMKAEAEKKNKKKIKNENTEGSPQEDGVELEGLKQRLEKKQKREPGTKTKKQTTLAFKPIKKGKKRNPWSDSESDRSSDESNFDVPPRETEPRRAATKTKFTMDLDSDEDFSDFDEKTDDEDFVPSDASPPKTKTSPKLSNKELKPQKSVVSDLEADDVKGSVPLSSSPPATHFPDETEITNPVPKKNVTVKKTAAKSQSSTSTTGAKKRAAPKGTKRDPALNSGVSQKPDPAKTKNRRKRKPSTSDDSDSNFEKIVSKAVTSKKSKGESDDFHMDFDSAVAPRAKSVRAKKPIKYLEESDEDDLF
Experimental: Biotin-conjugated antibody was added to each well followed by incubation at 37 °C for 1 h, then the plates were aspirated. Avidin conjugated Horseradish Peroxidase (HRP avidin) solution was added to each well, incubated again at 37 °C for 1 h. TMB substrate was added to the wells and the plate was incubated at 37 °C for 30 min at dark place. The absorbance was read using spectrophotometer at a wavelength of 450 nm.

[5] = target: T2, topoisomerase II (Homo sapiens, UniProt P11388); test: DNA topo II inhibition assay (kDNA, agarose gel); assay type: biochemical; conditions: 10 µM, with topo II
T2 construct: purchased Topogen, USA
T2 sequence (P11388 whole entry): as above
Experimental: Using the procedure outlined in topoisomerase II Drug Screening Kit (Topogen, USA), the effect of 6a, 6c and 6i on topoisomerase II inhibition and the effectiveness of catenated/decatenated kDNA formation were examined. The reaction mixture includes 10 mM MgCl2, 50 mM Tris-HCl, 0.5 mM dithiothreitol, […]/ml bovine serum albumin, 200–300 ng of kDNA and topoisomerase II. […] After the reaction samples were incubated for 30 min at 37 °C, the reaction was stopped by adding […] of a stop buffer containing 10% (w/v) SDS and […] of 0.5 mg/ml proteinase followed by incubating the mixture for 10 min at 37 °C. The reaction mixture was separated by 1% agarose gel and examined after being stained with ethidium bromide.

[6] = target: T3, EGFR (Homo sapiens, UniProt P00533); test: EGFR kinase assay kit; assay type: biochemical; conditions: mean ± SE; read-out: EGFR inhibitory activity IC50
T3 construct: purchased BPS Bioscience, San Diego, CA, USA
T3 sequence (P00533 25-1210): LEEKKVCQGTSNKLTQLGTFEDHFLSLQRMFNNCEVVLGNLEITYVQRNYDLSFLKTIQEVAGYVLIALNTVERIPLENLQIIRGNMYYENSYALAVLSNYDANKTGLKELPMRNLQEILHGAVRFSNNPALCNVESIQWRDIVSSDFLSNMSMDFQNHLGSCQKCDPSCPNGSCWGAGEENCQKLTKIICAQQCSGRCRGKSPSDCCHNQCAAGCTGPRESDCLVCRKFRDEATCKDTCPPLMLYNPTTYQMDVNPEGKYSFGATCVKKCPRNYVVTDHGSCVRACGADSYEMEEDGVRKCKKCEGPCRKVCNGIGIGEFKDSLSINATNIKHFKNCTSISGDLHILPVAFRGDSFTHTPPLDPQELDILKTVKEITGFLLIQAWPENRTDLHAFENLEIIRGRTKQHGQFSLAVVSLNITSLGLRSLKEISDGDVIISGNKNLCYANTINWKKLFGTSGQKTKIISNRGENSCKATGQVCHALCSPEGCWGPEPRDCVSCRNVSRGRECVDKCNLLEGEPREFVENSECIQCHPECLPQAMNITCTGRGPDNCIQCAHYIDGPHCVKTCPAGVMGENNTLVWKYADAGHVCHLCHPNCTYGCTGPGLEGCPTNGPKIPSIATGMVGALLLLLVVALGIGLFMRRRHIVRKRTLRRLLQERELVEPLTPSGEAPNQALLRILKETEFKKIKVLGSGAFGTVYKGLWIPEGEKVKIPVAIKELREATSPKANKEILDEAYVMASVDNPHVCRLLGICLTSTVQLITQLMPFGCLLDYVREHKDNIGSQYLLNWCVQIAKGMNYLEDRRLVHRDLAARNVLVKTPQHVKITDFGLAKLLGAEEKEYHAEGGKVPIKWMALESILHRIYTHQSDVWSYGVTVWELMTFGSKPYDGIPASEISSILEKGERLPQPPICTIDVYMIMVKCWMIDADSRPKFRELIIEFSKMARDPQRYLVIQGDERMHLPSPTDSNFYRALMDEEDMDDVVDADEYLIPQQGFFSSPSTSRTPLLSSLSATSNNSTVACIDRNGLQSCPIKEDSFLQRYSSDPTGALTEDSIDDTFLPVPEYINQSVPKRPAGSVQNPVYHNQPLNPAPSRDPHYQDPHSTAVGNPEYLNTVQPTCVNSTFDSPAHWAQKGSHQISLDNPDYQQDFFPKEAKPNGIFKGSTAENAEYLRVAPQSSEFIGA
Experimental: The kinase activity of EGFR was assessed for 6a, 6c and 6i hybrids using EGFR kinase assay kit (BPS Bioscience, San Diego, CA, USA) based on the manufacturer’s instructions. Three independent experiments were performed for each compound and Mean ± SE were calculated.

[7] = test system: p53; test: p53 level ELISA in MCF-7 cells; assay type: cell-based, human; conditions: for p53 FLD: MCF-7, at IC50, fold of control cells; for p53 Conc.(pg/ml): MCF-7, at IC50, control 257 ± 19.1
Experimental: p53 level was determined in MCF-7 cell line using Human p53 ELISA Kit (Sigma Aldrich, St. Louis, MO, USA). The cells were lysed using cell extraction buffer. Cell lysate was diluted with standard diluent buffer, then added to p53 monoclonal antibody pre-coated 96-wells plate. The plate incubated for 2 h at room temperature. Anti-p53 detection antibody was added to the plate and re-incubated at room temperature for 1 h. The plate washed four times using wash buffer followed by addition of anti-rabbit IgG-Horseradish Peroxidase (HRP) working solution. The plate incubated at room temperature for 30 min. Chromogen TMB (tetramethylbenzidine) was added to induce colour reaction. The absorbance of the plate was read at 450 nm using microplate reader (Bio-Rad Laboratories, Hercules, CA, USA). Three independent experiments were performed for each compound and Mean ± SE were calculated.

[8] = test system: Bax; test: Bax level ELISA in MCF-7 cells; assay type: cell-based, human; conditions: for Bax Conc.(pg/ml): MCF-7, at IC50, 24 h, control 83.16 ± 6.2; for Bax FLD: MCF-7, at IC50, fold of control cells
Experimental: (§3) MCF-7 cells were cultured in DMEM supplied with 10% FBS and incubated in 5% CO2 in air at 37 °C. […] Cell lysate was diluted using standard diluent buffer over the range of assay. Bax and Bcl-2 content in the lysate was assessed using human Bax ELISA kit (DRG, USA) and Bcl-2 ELISA Kit (Zymed Laboratories, Invitrogen Immuno-detection, Canada), respectively, according to the manufacturer’s instructions for each kit. The results were expressed as Mean ± SE of three independent experiments.

[9] = test system: Bcl-2; test: Bcl-2 level ELISA in MCF-7 cells; assay type: cell-based, human; conditions: for Bcl-2 Conc.(ng/ml): MCF-7, at IC50, 24 h, control 6.56 ± 0.22; for Bcl-2 FLD: MCF-7, at IC50, fold of control cells
Experimental: as §3

[10] = test system: caspase-7; test: Caspase-7 ELISA in MCF-7 cells; assay type: cell-based, human; conditions: for Caspase 7 FLD: MCF-7, at IC50, fold of control; for Caspase 7 Conc.(ng/ml): MCF-7, at IC50, control 0.45 ± 0.03
Experimental: (§4) The effect of 6a, 6c and 6i hybrids on caspase-7 and −9 levels in MCF-7 cell line was measured using Human Caspase-7 ELISA Kit (BioVision Inc., Milpitas, CA 95035 USA) and Human Caspase-9 ELISA Kit (EIA-4860, DRG, USA), respectively, and according to the manufacturer’s instructions. The results were expressed as Mean ± SE of three independent experiments.

[11] = test system: caspase-9; test: Caspase-9 ELISA in MCF-7 cells; assay type: cell-based, human; conditions: for Caspase 9 FLD: MCF-7, at IC50, fold of control; for Caspase 9 Conc.(pg/ml): MCF-7, at IC50, control 4.51 ± 0.29
Experimental: as §4

[12] = MTT, 24 h, mean ± SE of three experiments, read-out: IC50 (µM) ± S.E. MCF-7
[13] = MCF-7, concentration used for treatment, read-out: IC50 (Table 2)
[14] = MCF-7, concentration used for treatment, read-out: IC50 (Table 3)

SMILES: C#Cc1cccc(Nc2ncnc3cc(OCCOC)c(OCCOC)cc23)c1 [Erlotinib, erlotinib, reference compound]
- IC50 [1]: 5.19 ± 0.36 µM
- IC50 [2]: 8.64 ± 0.18 µM
- IC50 [3, 12]: 7.26 ± 0.2 µM

SMILES: N#Cc1c(-c2ccccc2)nc2sc3c(n2c1=O)C(=O)c1ccccc1C3=O [Compound 6g, 4,6,11-Trioxo-2-phenyl-6,11-dihydro-4H-naphtho[’',’':4,5]thiazolo[3,2-a]-pyrimidine-3-carbonitrile]
- IC50 [1]: 42.2 ± 2.19 µM
- IC50 [2]: 9 ± 0.66 µM
- IC50 [3, 12]: 13.8 ± 1.12 µM

SMILES: CN(C)c1ccc(-c2nc3sc4c(n3c(=O)c2C#N)C(=O)c2ccccc2C4=O)cc1 [Compound 6h, 2–(4-(Dimethylamino)phenyl)-4,6,11-trioxo-6,11-dihydro-4H-naphtho-[’',’':4,5]thiazolo[3,2-a]pyrimidine-3-carbonitrile]
- IC50 [1]: 21.2 ± 1.23 µM
- IC50 [2]: 56.2 ± 4.11 µM
- IC50 [3, 12]: 37.9 ± 2.25 µM

SMILES: N#Cc1c(-c2ccc(Cl)cc2)nc2sc3c(n2c1=O)C(=O)c1ccccc1C3=O [Compound 6e, 2–(4-Chlorophenyl)-4,6,11-trioxo-6,11-dihydro-4H-naphtho[’',’':4,5]thiazolo-[3,2-a]pyrimidine-3-carbonitrile]
- IC50 [1]: 5.72 ± 0.37 µM
- IC50 [2]: 9.81 ± 0.65 µM
- IC50 [3, 12]: 5.14 ± 0.32 µM

SMILES: N#Cc1c(-c2ccc(Br)cc2)nc2sc3c(n2c1=O)C(=O)c1ccccc1C3=O [Compound 6d, 2–(4-Bromophenyl)-4,6,11-trioxo-6,11-dihydro-4H-naphtho[’',’':4,5]thiazolo-[3,2-a]pyrimidine-3-carbonitrile]
- fold the activity of erlotinib [1]: 1.60 fold
- IC50 [1]: 3.25 ± 0.31 µM
- IC50 [2]: 11.77 ± 0.11 µM
- IC50 [3, 12]: 5.66 ± 0.29 µM
- fold the activity of erlotinib [3]: 1.28 fold

SMILES: COc1cc(-c2nc3sc4c(n3c(=O)c2C#N)C(=O)c2ccccc2C4=O)cc(OC)c1OC [Compound 6f, 4,6,11-Trioxo-2–(3,4,5-trimethoxyphenyl)-6,11-dihydro-4H-naphtho[’',’':4,5]-thiazolo[3,2-a]pyrimidine-3-carbonitrile]
- IC50 [1]: 38.3 ± 3.21 µM
- IC50 [2]: 26.8 ± 1.78 µM
- IC50 [3, 12]: 29.1 ± 1.56 µM

SMILES: COc1ccc(-c2nc3sc4c(n3c(=O)c2C#N)C(=O)c2ccccc2C4=O)cc1OC [Compound 6c, 2–(3,4-Dimethoxyphenyl)-4,6,11-trioxo-6,11-dihydro-4H-naphtho[’',’':4,5]-thiazolo[3,2-a]pyrimidine-3-carbonitrile]
- IC50 [1]: 3.65 ± 0.25 µM
- IC50 [2]: 3.66 ± 0.39 µM
- IC50 [3, 13]: 4.42 µM
- IC50 [3, 14]: 4.42 µM
- IC50 [3, 12]: 4.42 ± 0.35 µM
- % inhibition of topoisomerase IIα activity [4]: 11.30%
- linear DNA formation from catenated kDNA [5]: the production of linear DNA was not noticed
- IC50 [6]: 44.7 ± 0.82 nM
- p53 FLD [7]: 2.6 fold
- p53 Conc.(pg/ml) [7]: 678 ± 42.3 pg/mL
- Bax Conc.(pg/ml) [8]: 372.7 ± 9.4 pg/mL
- Bax FLD [8]: 4.48 fold
- Bcl-2 Conc.(ng/ml) [9]: 2.17 ± 0.36 ng/mL
- Bcl-2 FLD [9]: 0.33 fold
- Caspase 7 FLD [10]: 4.20 fold
- Caspase 7 Conc.(ng/ml) [10]: 1.89 ± 0.02 ng/mL
- Caspase 9 FLD [11]: 3.03 fold
- Caspase 9 Conc.(pg/ml) [11]: 13.68 ± 0.42 pg/mL

SMILES: COc1cccc2c1C(=O)c1c(O)c3c(c(O)c1C2=O)C[C@@](O)(C(=O)CO)C[C@@H]3O[C@H]1C[C@H](N)[C@H](O)[C@H](C)O1 [Dox, Doxorubicin, reference compound]
- IC50 [1]: 4.95 ± 0.29 µM
- IC50 [2]: 6.78 ± 0.44 µM
- IC50 [3, 13]: 5.62 µM
- IC50 [3, 14]: 5.62 µM
- IC50 [3, 12]: 5.62 ± 0.31 µM
- % inhibition of topoisomerase IIα activity [4]: 65.92%
- concentration of topoisomerase IIα ([4]; compounds at their IC50, control 3.663 ± 0.09 ng/ml): 1.248 ± 0.09 ng/mL
- p53 FLD [7]: 4 fold
- p53 Conc.(pg/ml) [7]: 1051 ± 22.6 pg/mL
- Bax Conc.(pg/ml) [8]: 511.2 ± 6.5 pg/mL
- Bax FLD [8]: 6.14 fold
- Bcl-2 Conc.(ng/ml) [9]: 1.66 ± 0.03 ng/mL
- Bcl-2 FLD [9]: 0.25 fold
- Caspase 7 FLD [10]: 23.2 fold
- Caspase 7 Conc.(ng/ml) [10]: 10.44 ± 0.92 ng/mL
- Caspase 9 FLD [11]: 6.53 fold
- Caspase 9 Conc.(pg/ml) [11]: 29.48 ± 0.25 pg/mL

SMILES: N#Cc1c(-c2ccc(F)cc2)nc2sc3c(n2c1=O)C(=O)c1ccccc1C3=O [Compound 6b, 2–(4-Fluorophenyl)-4,6,11-trioxo-6,11-dihydro-4H-naphtho[’',’':4,5]thiazolo-[3,2-a]pyrimidine-3-carbonitrile]
- fold the activity of erlotinib [1]: 1.23 fold
- IC50 [1]: 4.2 ± 0.41 µM
- IC50 [2]: 11.5 ± 0.12 µM
- IC50 [3, 12]: 4.78 ± 0.36 µM
- fold the activity of erlotinib [3]: 1.52 fold
